The numbers were not newly measured in patent US9504677B2, “Substituted N-aryl pyridinones” (Auspex Pharmaceuticals, Inc., priority 2007, dated 2016), which cites them from elsewhere.

For data set [1] the following is noted: humans.

Consider `Cc1ccc(=O)n(-c2ccccc2)c1` [Pirfenidone, 5-methyl-1-phenyl-1H-pyridin-2-one], for which the DNA synthesis result in the data set on leiomyoma cells and in the data set with myometrial cells was “inhibits DNA synthesis” in each case. The “efficacy in rodent disease models” value with rodent disease models is listed as “effective”. Further, in data set [1], the half-life entry is “very short”.
